From ChEMBL document CHEMBL1201862, “PubChem BioAssay data set” (2004) come the findings set out here.

Test systems include KM12; LOX IMVI; SNB-75; 786-0; MCF7; HCT-15; MDA-MB-231; UACC-62; CAKI-1; HOP-92; A549; SK-MEL-2; COLO 205; A498; SF-295; OVCAR-3; RPMI-8226; Malme-3M; SR.
Experiment in all cases: growth of human tumour cells (NCI), 48 h

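Step 1: Grow cells in 96-well plates. Step 2: Expose to compound for 48 hours at 5 concentrations. Step 3: Interpolate endpoints linearly; if unreached, use highest concentration. GI50 = concentration required for 50% inhibition of growth.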 Activity calls are given as the source filed them. Rule as the data show it: active = GI50 up to about 1.1 µM and inactive = higher.

For the molecule `N#C/C(=C/NC(=S)c1ccncc1)C(N)=O`, the GI50 was > 100 µM (inactive) with KM12; > 100 µM (inactive) in the test with LOX IMVI; > 100 µM (inactive) in the test on SNB-75; > 100 µM (inactive) in the test on 786-0; > 100 µM (inactive) in the test on MCF7; over 100 µM in the test with HCT-15. Moreover, the GI50 with MDA-MB-231, in the test with UACC-62, in the test with CAKI-1, in the test on HOP-92, in the test with A549 and in the test on SK-MEL-2 was > 100 µM (inactive) throughout. The GI50 in the test with COLO 205, in the test on A498, in the test on SF-295 and with OVCAR-3 was > 100 µM (inactive) throughout.

On to `N#CC(N)(C(=O)CCC(=O)Nc1cccc(Cl)c1)c1ccc(Cl)cc1` (stereo unspecified), for which the GI50 in the test with KM12 is > 100 µM (inactive); in the test on SNB-75, > 100 µM (inactive); in the test on 786-0, > 100 µM (inactive); in the test on HCT-15, over 100 µM; with UACC-62 it was > 100 µM (inactive); with CAKI-1, > 100 µM (inactive). Also, the GI50 in the test on RPMI-8226, with Malme-3M, in the test on HOP-92, in the test on A549, with SK-MEL-2 and with COLO 205 was > 100 µM (inactive) throughout. For the same molecule, the GI50 with A498, in the test with SF-295, with OVCAR-3 and with SR was > 100 µM (inactive) throughout.

`CCC12CCCC(=O)N1C(CO)C(c1ccccc1)O2` (stereo unspecified): the GI50 in the test with KM12 was > 100 µM (inactive); with LOX IMVI, > 100 µM (inactive); in the test on SNB-75, > 100 µM (inactive); with 786-0 it was > 100 µM (inactive); with HCT-15, over 100 µM; with UACC-62, > 100 µM (inactive). The GI50 in the test on CAKI-1, with RPMI-8226, with Malme-3M, with HOP-92, in the test on A549 and in the test on SK-MEL-2 was > 100 µM (inactive) each time. Besides, the GI50 in the test with COLO 205, in the test with A498, in the test with SF-295, in the test on OVCAR-3 and with SR was > 100 µM (inactive) in each case.

Take `CCCCCCCCCCCCN(O)C(=O)c1ccccc1`: the GI50 in the test with KM12 was 38 µM (inactive); with LOX IMVI it was 20.5 µM (inactive); in the test with SNB-75 it was 22.9 µM (inactive); in the test on 786-0 it was 16.9 µM (inactive); in the test on HCT-15, 9.64 µM; in the test with UACC-62, 19.7 µM (inactive). Moreover, the GI50 is 15.1 µM (inactive) in the test on RPMI-8226; 17.5 µM (inactive) in the test with Malme-3M; 17.7 µM (inactive) in the test on HOP-92; 24.4 µM (inactive) in the test with A549; 47 µM (inactive) with SK-MEL-2; 18.8 µM (inactive) in the test with A498. In addition, the GI50 in the test with SF-295 is 29.4 µM (inactive); in the test on OVCAR-3, > 100 µM (inactive); with SR, 8.26 µM (inactive).

`CN(CCNC(=O)c1nn(C)c2c1Cc1ccccc1-2)CCNC(=O)c1nn(C)c2c1Cc1ccccc1-2`: the GI50 in the test with KM12 is 19.1 µM (inactive); in the test on LOX IMVI, 16.4 µM (inactive); with SNB-75 it was 14.4 µM (inactive); in the test with 786-0, 14.5 µM (inactive); with MCF7 it was 11.1 µM (inactive); in the test on HCT-15, 16.7 µM. Further, the GI50 was 19 µM (inactive) in the test on MDA-MB-231; 15.2 µM (inactive) in the test on UACC-62; 18.4 µM (inactive) in the test on CAKI-1; 16.3 µM (inactive) with Malme-3M; 12.9 µM (inactive) with HOP-92; 15.8 µM (inactive) with A549. In addition, the GI50 is 14.7 µM (inactive) with SK-MEL-2; 11.9 µM (inactive) in the test with COLO 205; 15.2 µM (inactive) in the test on A498; 16 µM (inactive) in the test on SF-295; 11.4 µM (inactive) with OVCAR-3.

`CCCN(CCC)CCc1cc(C(C)=O)n(S(=O)(=O)c2ccc(C)cc2)c1`: the GI50 was > 100 µM (inactive) in the test with KM12; > 100 µM (inactive) in the test on SNB-75; > 100 µM (inactive) in the test on 786-0; over 100 µM in the test with HCT-15; > 100 µM (inactive) in the test on UACC-62; 84.7 µM (inactive) in the test on CAKI-1. Further, the GI50 in the test on RPMI-8226, in the test with Malme-3M, in the test on HOP-92, with A549, in the test on SK-MEL-2 and in the test on COLO 205 was > 100 µM (inactive) each time. The GI50 in the test on A498, in the test on SF-295, in the test with OVCAR-3 and with SR was > 100 µM (inactive) each time.

Turning to `CC1=NN(c2ccccc2)C(=O)C1=C1SCCCS1`, the GI50 is 21.9 µM (inactive) with KM12; 23.6 µM (inactive) in the test with LOX IMVI; > 100 µM (inactive) in the test with SNB-75; 35.5 µM (inactive) in the test with 786-0; 31.9 µM in the test with HCT-15; 17.3 µM (inactive) in the test on UACC-62. In addition, the GI50 in the test on CAKI-1 was 15 µM (inactive); with RPMI-8226 it was 19.7 µM (inactive); in the test on Malme-3M, 41.8 µM (inactive); in the test with HOP-92 it was 25.5 µM (inactive); in the test with A549, 25.4 µM (inactive); in the test on SK-MEL-2, 56 µM (inactive). Further, the GI50 is 15.9 µM (inactive) in the test on COLO 205; 45.7 µM (inactive) in the test on A498; 27.2 µM (inactive) in the test with SF-295; 22.3 µM (inactive) with OVCAR-3; 14.3 µM (inactive) in the test on SR.

In the case of `Cc1ccc(S(=O)(=O)N/N=C2\C=CC3(CC2)C(=O)N(I)c2ccccc23)cc1` (stereo unspecified), the GI50 was 82.2 µM (inactive) in the test with KM12; > 100 µM (inactive) in the test with LOX IMVI; > 100 µM (inactive) in the test with SNB-75; > 100 µM (inactive) in the test with 786-0; over 100 µM with HCT-15; 58.7 µM (inactive) in the test on MDA-MB-231. The GI50 in the test with UACC-62 is > 100 µM (inactive); in the test on CAKI-1 it was > 100 µM (inactive); in the test with RPMI-8226, 39.3 µM (inactive); in the test with Malme-3M it was 0.055 µM (active); in the test on HOP-92, 89.7 µM (inactive); in the test with A549, > 100 µM (inactive). Also, the GI50 is 48.1 µM (inactive) in the test on SK-MEL-2; > 100 µM (inactive) in the test with COLO 205; > 100 µM (inactive) with A498; 41.5 µM (inactive) in the test on SF-295; > 100 µM (inactive) in the test on OVCAR-3; 86.9 µM (inactive) in the test with SR.

As for `Cc1ccc(S(=O)(=O)Nn2c(O)c(C#N)c(-c3ccc([N+](=O)[O-])cc3)c(C#N)c2=O)cc1`, the GI50 with KM12 was > 100 µM (inactive); in the test on LOX IMVI it was > 100 µM (inactive); in the test with SNB-75 it was > 100 µM (inactive); in the test on 786-0, > 100 µM (inactive); with MCF7 it was > 100 µM (inactive); in the test on HCT-15 it was over 100 µM. For the same molecule, the GI50 in the test on MDA-MB-231, in the test with UACC-62, in the test with CAKI-1, with Malme-3M, with HOP-92 and with A549 was > 100 µM (inactive) throughout. In addition, the GI50 in the test with SK-MEL-2, in the test on COLO 205, with A498 and in the test with SF-295 was > 100 µM (inactive) in each case.

On to `COC(=O)c1cc(C#N)[nH]c1-c1ccc(C)s1`, for which the GI50 in the test on KM12 was 92.7 µM (inactive); in the test on SNB-75, 25.3 µM (inactive); in the test with 786-0, 98.2 µM (inactive); in the test on HCT-15, 41.6 µM; in the test on MDA-MB-231 it was 38.6 µM (inactive); in the test with UACC-62, 51.3 µM (inactive). Further, the GI50 with CAKI-1 was 41.9 µM (inactive); in the test with RPMI-8226 it was 51.3 µM (inactive); in the test on HOP-92, 30.2 µM (inactive); in the test on A549, 46.2 µM (inactive); in the test on COLO 205 it was 64.3 µM (inactive); with A498, 26.9 µM (inactive). Also, the GI50 with SF-295 is 38.8 µM (inactive); with OVCAR-3 it was 26.9 µM (inactive); in the test with SR, 63 µM (inactive).

For the molecule `O=c1c2cccc3cccc(c4n1CCN=4)c32`, the GI50 is 76.9 µM (inactive) with KM12; 32 µM (inactive) with LOX IMVI; 76.9 µM (inactive) with SNB-75; > 100 µM (inactive) in the test with 786-0; 85.7 µM in the test on HCT-15; 84.5 µM (inactive) in the test on UACC-62. Also, the GI50 was 63.4 µM (inactive) in the test with CAKI-1; > 100 µM (inactive) with RPMI-8226; > 100 µM (inactive) in the test with Malme-3M; > 100 µM (inactive) with HOP-92; > 100 µM (inactive) in the test on A549; 63.7 µM (inactive) with SK-MEL-2. Also, the GI50 in the test on COLO 205 was > 100 µM (inactive); in the test on A498, 40.3 µM (inactive); in the test on SF-295 it was > 100 µM (inactive); in the test on OVCAR-3 it was > 100 µM (inactive); in the test on SR it was 25.2 µM (inactive).

Regarding `CC(=O)/C(=C/N1C(=O)CC(=O)NC1=S)C(=O)Nc1ccccc1C`, the GI50 was 37.5 µM (inactive) in the test with KM12; > 100 µM (inactive) in the test on LOX IMVI; 91.6 µM (inactive) in the test on SNB-75; 21.7 µM (inactive) in the test with 786-0; 60.4 µM (inactive) in the test with MCF7; 42.5 µM in the test with HCT-15. The GI50 with MDA-MB-231 is > 100 µM (inactive); in the test with UACC-62, 24.3 µM (inactive); with CAKI-1 it was 87.9 µM (inactive); in the test with HOP-92 it was > 100 µM (inactive); in the test on A549, 34.8 µM (inactive); with SK-MEL-2, > 100 µM (inactive). The GI50 with COLO 205 is > 100 µM (inactive); in the test with A498, 28.1 µM (inactive); in the test with SF-295, 84.3 µM (inactive); with OVCAR-3, 36.1 µM (inactive).
